{"source": "paper PMC9709406", "about": "(Frontiers in Pharmacology, 2022)", "key": {"[1]": {"test_system": "H1975 cells", "experiment": "MTT assay for cell proliferation and cytotoxicity, H1975", "assay_type": "cell-based, human", "conditions": "Homo sapiens, NCI-H1975, 48 h, MTT, 48 h, H1975, n = 5; read-out: IC50 48 h H1975", "description": "(§1) The human cancer cells (H1650, H1975, KYSE70, KYSE410 and KYSE450) were purchased from the Type Culture Collection of the Chinese Academy of Sciences (Shanghai, China). The human immortalized normal esophageal epithelial cell line SHEE was donated by Dr. Enmin Li from the Laboratory of Tumor Pathology (Shantou University Medical College, Shantou, Guangdong, China). Drug-resistant cells (H1650TR, H1975OR, KYSE70TR, KYSE410TR and KYSE450TR) were induced by China-US (Henan) Hormel Cancer Institute. The cellswere cultured in RPMI-1640 complete growth medium containing 100 U/mL penicillin-streptomycin and 10% FBS. Based on the above medium formula, 100 nm/L paclitaxel was added in taxol-resistant cells, 100 nm/L gefitinib was added in gefitinib-resistant cells. The cells were incubated at 37 °C in an atmosphere containing 5% of CO2. The compounds were dissolved in DMSO to make a 50 mM stock solution and were diluted to the concentration of working solutions with complete growth medium before administration.\nCells were seeded in 96-well plates with 2,200–2,500 cells/well in100 μL. One day after seeding, test compounds with the concentration between 0 and 50 μM were added with 0.1% DMSO as control. Five multiple wells for each concentration. […] The absorbance at 490 nm was measured using a microplate reader (Thermo)."}, "[2]": {"biological_target": "T1, EGFR (Homo sapiens, UniProt P00533)", "T1 construct": "purchased Active MOTIF", "T1 sequence (P00533 25-1210)": "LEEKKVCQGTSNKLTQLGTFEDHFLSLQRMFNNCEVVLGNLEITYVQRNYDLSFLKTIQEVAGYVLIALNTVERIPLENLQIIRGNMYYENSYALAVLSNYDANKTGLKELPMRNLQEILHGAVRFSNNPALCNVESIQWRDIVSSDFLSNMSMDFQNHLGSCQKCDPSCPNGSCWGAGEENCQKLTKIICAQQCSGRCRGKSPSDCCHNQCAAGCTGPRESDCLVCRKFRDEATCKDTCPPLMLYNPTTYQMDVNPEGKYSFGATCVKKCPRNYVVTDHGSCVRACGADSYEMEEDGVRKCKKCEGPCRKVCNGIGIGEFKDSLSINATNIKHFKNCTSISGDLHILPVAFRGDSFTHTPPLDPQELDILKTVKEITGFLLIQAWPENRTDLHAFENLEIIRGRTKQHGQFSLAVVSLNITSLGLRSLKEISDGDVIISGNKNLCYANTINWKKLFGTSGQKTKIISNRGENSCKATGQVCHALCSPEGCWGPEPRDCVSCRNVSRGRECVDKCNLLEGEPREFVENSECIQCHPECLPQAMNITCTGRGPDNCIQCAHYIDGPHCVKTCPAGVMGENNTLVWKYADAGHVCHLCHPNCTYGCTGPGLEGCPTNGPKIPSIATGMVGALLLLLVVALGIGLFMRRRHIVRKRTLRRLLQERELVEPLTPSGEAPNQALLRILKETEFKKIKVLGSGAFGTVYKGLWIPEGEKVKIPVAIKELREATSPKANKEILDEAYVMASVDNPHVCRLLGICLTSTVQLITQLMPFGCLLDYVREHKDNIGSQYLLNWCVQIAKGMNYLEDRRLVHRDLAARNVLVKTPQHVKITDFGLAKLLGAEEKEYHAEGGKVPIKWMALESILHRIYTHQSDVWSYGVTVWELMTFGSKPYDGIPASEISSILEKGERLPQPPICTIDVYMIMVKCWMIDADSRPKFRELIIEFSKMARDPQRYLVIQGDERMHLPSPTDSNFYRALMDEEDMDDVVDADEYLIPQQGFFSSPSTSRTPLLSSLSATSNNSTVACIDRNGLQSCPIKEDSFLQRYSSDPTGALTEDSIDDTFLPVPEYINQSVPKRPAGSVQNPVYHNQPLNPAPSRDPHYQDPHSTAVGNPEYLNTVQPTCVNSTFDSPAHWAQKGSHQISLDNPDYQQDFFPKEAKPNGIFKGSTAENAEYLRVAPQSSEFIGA", "experiment": "EGFR kinase assay (ELISA)", "assay_type": "biochemical", "conditions": "25°C", "experimental": "Kinase inhibitory activities of the compounds were evaluated using the Protein Tyrosine Kinase Assay Kit (SignalChem (British Columbia, Canada)). The kinase enzyme of EGFR was purchased from Active MOTIF. The ELISA experiments were carried out according the instructions of the kit. Active kinases were incubated with indicated compounds in 1 × reaction buffer containing 20 μM substrate at 25°C for 1 h and 2 h, respectively. The absorbance was read with a multimode plate reader (PerkinElmer, United States) at 450 nm."}, "[3]": {"test_system": "KYSE450 cells", "experiment": "MTT assay, KYSE450", "assay_type": "cell-based, human", "conditions": "for IC50: Homo sapiens, KYSE-450, MTT, 48 h, KYSE450, n = 5, read-out: IC50 48 h KYSE450; for absorbance 490 nm, single well / mean absorbance 490 nm (row G) / mean absorbance 490 nm minus background (row H): KYSE450", "description": "as §1\n(§2) Cells were seeded in 96-well plates with 2,200–2,500 cells/well in100 μL. One day after seeding, test compounds with the concentration between 0 and 50 μM were added with 0.1% DMSO as control. Five multiple wells for each concentration. After 48 h, MTT was added and incubated in the plate for 1–4 h in the incubator. The absorbance at 490 nm was measured using a microplate reader (Thermo)."}, "[4]": {"test_system": "KYSE70 cells", "experiment": "MTT assay, KYSE70", "assay_type": "cell-based, human", "conditions": "for IC50: Homo sapiens, KYSE-70, MTT, 48 h, KYSE70, n = 5", "description": "as §1, §2"}, "[5]": {"test_system": "H1650 cells", "experiment": "MTT assay for cell proliferation and cytotoxicity, H1650", "assay_type": "cell-based", "conditions": "Homo sapiens, NCI-H1650, 48 h, H1650, n = 5", "description": "as §1, §2"}, "[6]": {"test_system": "KYSE410 cells", "experiment": "MTT assay, KYSE410", "assay_type": "cell-based, human", "conditions": "for IC50: Homo sapiens, KYSE-410, MTT, 48 h, KYSE410, n = 5, read-out: IC50 48 h KYSE410", "description": "as §1, §2"}, "[7]": {"test_system": "SHEE cells", "experiment": "MTT assay, normal esophageal epithelial cell line SHEE", "assay_type": "cell-based", "conditions": "Homo sapiens, 48 h, n = 5", "description": "as §1, §2"}, "[8]": {"conditions": "incubation 1 h, read-out: IC50 EGFR 1 h"}, "[9]": {"conditions": "incubation 2 h, read-out: IC50 EGFR 2 h"}, "[10]": {"conditions": "concentration 12.5 (unit not given)"}, "[11]": {"conditions": "concentration 25 (unit not given)"}, "[12]": {"conditions": "concentration 50 (unit not given)"}, "[13]": {"conditions": "concentration 100 (unit not given)"}}, "note": "Several values for one entry are separate records, joined by “and”; a condition that tells them apart may be missing. Identical values can stand only once. Like-named read-outs stand apart in the source and are kept apart here."}
{"smiles": "Clc1ccc(-n2cc(-c3cccc(Nc4ncnc5cc6c(cc45)OCCOCCOCCO6)c3)nn2)cc1", "note": "[compound 3b]", "values": [{"measurement": "IC50", "setting": "[1]", "value": "> 50", "unit": "µM"}, {"measurement": "IC50", "setting": "[2]; [8]", "value": 3.26, "unit": "µM"}, {"measurement": "IC50", "setting": "[2]; [9]", "value": 71.7, "unit": "µM"}, {"measurement": "IC50", "setting": "[3]", "value": "11.6 ± 1.02", "unit": "µM"}, {"measurement": "melting point", "value": "132 to 135", "unit": "°C"}, {"measurement": "IC50", "setting": "[4]", "value": "8.85 ± 0.67", "unit": "µM"}, {"measurement": "blank-corrected absorbance 490 nm relative to control (fraction)", "setting": "[4]; KYSE70, concentration 12.5", "value": 0.2939}, {"measurement": "inhibition (1 minus fraction of control)", "setting": "[4]; KYSE70, concentration 12.5", "value": 0.7061}, {"measurement": "blank-corrected absorbance 490 nm relative to control (fraction)", "setting": "[4]; KYSE70, concentration 25", "value": 0.2786}, {"measurement": "inhibition (1 minus fraction of control)", "setting": "[4]; KYSE70, concentration 25", "value": 0.7214}, {"measurement": "blank-corrected absorbance 490 nm relative to control (fraction)", "setting": "[4]; KYSE70, concentration 50", "value": 0.1882}, {"measurement": "inhibition (1 minus fraction of control)", "setting": "[4]; KYSE70, concentration 50", "value": 0.8118}, {"measurement": "blank-corrected absorbance 490 nm relative to control (fraction)", "setting": "[4]; KYSE70, concentration 100", "value": 0.1691}, {"measurement": "inhibition (1 minus fraction of control)", "setting": "[4]; KYSE70, concentration 100", "value": 0.8309}, {"measurement": "IC50", "setting": "[5]", "value": "7.81 ± 0.46", "unit": "µM"}, {"measurement": "IC50", "setting": "[6]", "value": "10.7 ± 0.86", "unit": "µM"}, {"measurement": "blank-corrected absorbance 490 nm relative to control (fraction)", "setting": "[6]; KYSE410, concentration 12.5", "value": 0.4136}, {"measurement": "inhibition (1 minus fraction of control)", "setting": "[6]; KYSE410, concentration 12.5", "value": 0.5864}, {"measurement": "blank-corrected absorbance 490 nm relative to control (fraction)", "setting": "[6]; KYSE410, concentration 25", "value": 0.4139}, {"measurement": "inhibition (1 minus fraction of control)", "setting": "[6]; KYSE410, concentration 25", "value": 0.5861}, {"measurement": "blank-corrected absorbance 490 nm relative to control (fraction)", "setting": "[6]; KYSE410, concentration 50", "value": 0.3164}, {"measurement": "inhibition (1 minus fraction of control)", "setting": "[6]; KYSE410, concentration 50", "value": 0.6836}, {"measurement": "blank-corrected absorbance 490 nm relative to control (fraction)", "setting": "[6]; KYSE410, concentration 100", "value": 0.1744}, {"measurement": "inhibition (1 minus fraction of control)", "setting": "[6]; KYSE410, concentration 100", "value": 0.8256}, {"measurement": "IC50", "setting": "[7]", "value": "6.03 ± 0.48", "unit": "µM"}]}
{"smiles": "Clc1ccccc1-n1cc(-c2cccc(Nc3ncnc4cc5c(cc34)OCCOCCOCCO5)c2)nn1", "note": "[compound 3e]", "values": [{"measurement": "IC50", "setting": "[1]", "value": "13.1 ± 1.02", "unit": "µM"}, {"measurement": "IC50", "setting": "[2]; [8]", "value": 1.29, "unit": "µM"}, {"measurement": "IC50", "setting": "[2]; [9]", "value": 4.41, "unit": "µM"}, {"measurement": "IC50", "setting": "[3]", "value": "21.8 ± 1.47", "unit": "µM"}, {"measurement": "absorbance 490 nm, single well", "setting": "[3]; [10]", "value": "0.5603 and 0.5422 and 0.5648 and 0.5469"}, {"measurement": "mean absorbance 490 nm (row G)", "setting": "[3]; [10]", "value": 0.5535}, {"measurement": "mean absorbance 490 nm minus background (row H)", "setting": "[3]; [10]", "value": 0.4989}, {"measurement": "absorbance 490 nm, single well", "setting": "[3]; [11]", "value": "0.3988 and 0.3524 and 0.3487 and 0.3334"}, {"measurement": "mean absorbance 490 nm (row G)", "setting": "[3]; [11]", "value": 0.3583}, {"measurement": "mean absorbance 490 nm minus background (row H)", "setting": "[3]; [11]", "value": 0.3036}, {"measurement": "absorbance 490 nm, single well", "setting": "[3]; [12]", "value": "0.0685 and 0.0639 and 0.0619 and 0.065 and 0.0672"}, {"measurement": "mean absorbance 490 nm (row G)", "setting": "[3]; [12]", "value": 0.0653}, {"measurement": "mean absorbance 490 nm minus background (row H)", "setting": "[3]; [12]", "value": 0.01062}, {"measurement": "absorbance 490 nm, single well", "setting": "[3]; [13]", "value": "0.0642 and 0.0659 and 0.0644 and 0.0663"}, {"measurement": "mean absorbance 490 nm (row G)", "setting": "[3]; [13]", "value": 0.0652}, {"measurement": "mean absorbance 490 nm minus background (row H)", "setting": "[3]; [13]", "value": 0.01052}, {"measurement": "melting point", "value": "125 to 127", "unit": "°C"}, {"measurement": "IC50", "setting": "[4]", "value": "7.75 ± 0.68", "unit": "µM"}, {"measurement": "blank-corrected absorbance 490 nm relative to control (fraction)", "setting": "[4]; KYSE70, concentration 12.5", "value": 0.1936}, {"measurement": "inhibition (1 minus fraction of control)", "setting": "[4]; KYSE70, concentration 12.5", "value": 0.8064}, {"measurement": "blank-corrected absorbance 490 nm relative to control (fraction)", "setting": "[4]; KYSE70, concentration 25", "value": 0.0586}, {"measurement": "inhibition (1 minus fraction of control)", "setting": "[4]; KYSE70, concentration 25", "value": 0.9414}, {"measurement": "blank-corrected absorbance 490 nm relative to control (fraction)", "setting": "[4]; KYSE70, concentration 50", "value": 0.07267}, {"measurement": "inhibition (1 minus fraction of control)", "setting": "[4]; KYSE70, concentration 50", "value": 0.9273}, {"measurement": "blank-corrected absorbance 490 nm relative to control (fraction)", "setting": "[4]; KYSE70, concentration 100", "value": 0.08298}, {"measurement": "inhibition (1 minus fraction of control)", "setting": "[4]; KYSE70, concentration 100", "value": 0.917}, {"measurement": "IC50", "setting": "[5]", "value": "5.61 ± 0.3", "unit": "µM"}, {"measurement": "IC50", "setting": "[6]", "value": "11.7 ± 1.01", "unit": "µM"}, {"measurement": "blank-corrected absorbance 490 nm relative to control (fraction)", "setting": "[6]; KYSE410, concentration 12.5", "value": 0.4649}, {"measurement": "inhibition (1 minus fraction of control)", "setting": "[6]; KYSE410, concentration 12.5", "value": 0.5351}, {"measurement": "blank-corrected absorbance 490 nm relative to control (fraction)", "setting": "[6]; KYSE410, concentration 25", "value": 0.2124}, {"measurement": "inhibition (1 minus fraction of control)", "setting": "[6]; KYSE410, concentration 25", "value": 0.7876}, {"measurement": "blank-corrected absorbance 490 nm relative to control (fraction)", "setting": "[6]; KYSE410, concentration 50", "value": 0.02952}, {"measurement": "inhibition (1 minus fraction of control)", "setting": "[6]; KYSE410, concentration 50", "value": 0.9705}, {"measurement": "blank-corrected absorbance 490 nm relative to control (fraction)", "setting": "[6]; KYSE410, concentration 100", "value": 0.05985}, {"measurement": "inhibition (1 minus fraction of control)", "setting": "[6]; KYSE410, concentration 100", "value": 0.9402}, {"measurement": "IC50", "setting": "[7]", "value": "10.3 ± 0.84", "unit": "µM"}]}
